Source: patent US20180327354A1, “Unnatural Analogues of Calcitriol and Uses Thereof” (Vidasym, Inc., priority 2009, published 2018)
pEC50: −log10 of the molar value. Entries after “also recorded” stand apart in the source; their conditions may differ. Read-outs that look alike come from different tables or passages of the source.

Key:
VDR = VDR expression induction in primary culture of human coronary artery smooth muscle cells; type: cell-based; conditions: HCASMC
Protocol: Compounds were tested in a primary culture of HCASMC to assess their potency in inducing the expression of CYP24A1 and VDR.
Primary culture of HCASMC was grown in smooth muscle growth medium SmGM-2 containing 5.5 mM glucose, 5% FBS, 50 μg/ml gentamicin, 50 ng/ml amphotericin-B, 5 μg/ml insulin, 2 ng/ml hFGF, and 0.5 ng/ml hEGF at 37° C. in a humidified 5% CO2-95% air. Cells were grown to >80% confluence and used within five passages.
Cells were plated into 6 well plates and treated with test agent for 24 h. Cells were lysed with the addition of 1 mL of Trizol and RNA prepared according to the manufacturer's protocol.
Real-time reverse transcription-PCR was performed with the forward and reverse PCR primers and […] of the TAQMAN™ probe specifically designed for CYP24A1 or VDR. (A TAQMAN™ probe is comprised of a fluorophore covalently attached to the 5′-end of the oligonucleotide probe and a quencher at the 3′-end.) After the data acquisition, the CYP24A1 or VDR mRNA expression level was normalized to the GAPDH mRNA level. […] Group mean±STDEV (standard deviation) are presented.

[1] = test system: 5/6 nephrectomized uremic rats; test: Serum creatinine, BUN, PTH, phosphorus and calcium in 5/6 nephrectomized uremic rats; type: in vivo, Sprague Dawley rats; conditions: for effect on BUN / effect on serum PTH / effect on serum calcium / effect on serum creatinine / effect on serum phosphorus: 5/6 NX rats
Protocol: The nephrectomy of male, Sprague Dawley, 5/6 rats was performed using a standard two-step surgical ablation procedure (starting body weight ˜200 gm) as previously described (Slatopolsky et al., 1998, Am J Kidney Dis 32: S40-47). Sham operated rats were used as control. The rats were on a diet containing 1.13% calcium and 0.94% phosphorus. Six weeks after the second surgery, treatment was initiated with vehicle (5% ethanol+95% propylene glycol, 0.4 ml/kg) or test agent by intraperitoneal injection (i.p.), 3 times/week, for two weeks (n≥12 per group). Twenty-four hours after the last dose, retro-orbital venous blood was collected for measurement of PTH and other endpoints.
Calcium, serum phosphorus, creatinine, and blood urea nitrogen (BUN) concentrations were measured by a chemistry analyzer (LX-20, Beckman). Serum PTH was measured using a rat intact parathyroid hormone (i-PTH) ELISA kit. For serum chemistry data, group mean±SEM are presented. A t-test was used to analyze differences between baseline 6W (6 weeks after surgery before treatment) and 8W (8 weeks after surgery after two weeks of compound treatment).

[2] = Maximal absorbance wavelength and extinction coefficient (spectrophotometer scan); type: physicochemical; conditions: for maximal absorbance wavelength / extinction coefficient: 100 μM in 50:50 de-ionized water and ethanol; for extinction coefficient: in M-1·cm-1 (unit assumed)
Protocol: To determine the maximal absorbance wavelength (ODmax) and the extinction coefficients for the compounds, each compound is diluted in a 50:50 solution (by volume) of de-ionized water and ethanol at 100 μM and scanned by a spectrophotometer.

[3] = test system: 5/6 nephrectomized uremic rats; test: Proteinuria in 5/6 nephrectomized uremic rats; type: in vivo, Sprague Dawley rats; conditions: 5/6 NX rats, 3×/week, i.p. for 2 weeks, before versus after treatment
Protocol: The experimental conditions using the 5/6 (subtotal) nephrectomized rats were as described above. Urinary protein excretion was determined by urinary collection over a period of 24 h in metabolic cages at two time points: 24 h before the first dose and 24 hr after the last dose. Each animal was placed in a metabolic cage and urine was collected during a period of 24 h. Urinary protein concentration was determined by the biuret method (Morozova and Baryshnikova, 1991, Lab Delo 2:23-5). Total protein excretion per day was calculated by multiplying urinary protein concentration by total urine volume produced during the 24 h period.
Group mean±SEM are presented. Differences before versus after treatment were assessed using a t-test. Differences between SHAM, vehicle, and treated animals were assessed using a one-way ANOVA followed by a Dunnett's post-hoc test.

[4] = test system: 5/6 nephrectomized uremic rats; test: Left ventricular hypertrophy in 5/6 nephrectomized uremic rats; type: in vivo, Sprague Dawley rats; conditions: 5/6 NX rats; for cardiomyocyte morphology: hematoxylin-eosin
Protocol: The experimental conditions using the 5/6 (subtotal) nephrectomized rats were as described above. Twenty-four hours after the last dose, the rats were anesthetized with pentobarbital sodium (35 mg/kg, i.p.). The animals were sacrificed by cervical dislocation. The hearts were taken and washed with cold saline. After removing the residual saline with filter paper, the weight of the freshly dissected hearts and left ventricles were measured, and the ratio of left ventricle weight to body weight (LVW/BW) and/or left ventricle weight to heart weight (LVW/HW) were calculated. Thereafter, the left ventricles were rapidly put into liquid nitrogen until ready for histological and immunohistochemical analysis.
To examine the cardiomyocyte morphology, the left ventricular tissue was fixed in a 4% formaldehyde-phosphate-buffered saline (pH 7.4) solution overnight. The samples were embedded in wax and cut into 4 μm sections. The sections were stained with hematoxylin-eosin and examined under a microscope.
To determine the diameter of cardiomyocytes, a previously published method was followed (Xiang et al., 2005, Am J Physiol Endocrinol Metab 288: E125-132). The sections of left ventricles were stained with FITC-labeled wheat germ agglutinin (1:5 dilution) for 2 h at room temperature and then examined under a fluorescence microscope to visualize the myocyte membrane. The relative size of the cardiomyocytes was quantified by measuring the diameter of the myocytes, which was the distance between the two plasma membranes of a cell in longitudinal section. The measurement was done using ImageJ software. Data were obtained from 30 cells randomly selected from 5-10 microscopic fields of left ventricle slides.
Group mean±SEM are presented. Differences between SHAM, vehicle, and treated animals were assessed using a t-test, a one-way ANOVA followed by a Dunnett's post-hoc test, or a two-way ANOVA, followed by a Bonferonni post-hoc test. Similar to the human CKD condition, the 5/6 (subtotal) nephrectomized rats are known to develop left ventricular hypertrophy (Wolf et al., 2000, Journal of Cardiovascular Pharmacology 36: S348-350). Some animals were sacrificed before treatment to evaluate the development of left ventricular hypertrophy.

[5] = 24 h, Table 4 summary, some values average of 2 or more determinations, read-out: EC50 for VDR induction
[6] = i.p. 3 times/week for two weeks
[7] = 5/6 NX uremic rats, i.p. 3 times/week for two weeks
[8] = 2 weeks of treatment, 8 weeks after surgery

pEC50 (VDR; [5])	effect on serum phosphorus [1, 6]	maximal absorbance wavelength [2] [nm]	extinction coefficient [2]	SMILES	effect on BUN [1, 6]	effect on serum PTH [1, 6]	effect on serum calcium [1, 6]	effect on serum creatinine [1, 6]	dose at which compound starts to suppress serum PTH [1, 7] [µg/kg]	proteinuria (urinary protein concentration and total protein per day) [3]	effect on LVW/BW (left ventricle weight to body weight) [4, 8]	further results
9.21	did not significantly affect	253	46990	CCC(O)(CC)CCO[C@H](C)C1CCC2/C(=C/C=C3C[C@@H](O)C4(CC4)[C@H](O)C3)CCCC21C (stereo partly drawn) [Vida-10, (4R,8R)-6-((E)-2-((1S,7αS)-1-((R)-1-(3-ethyl-3-hydroxypentyloxy)ethyl)-7α-methyldihydro-1H-inden-4(2H,5H,6H,7H,7αH)-ylidene)ethylidene)spiro[2.5]octane-4,8-diol]	did not significantly affect	–	–	did not significantly affect	0.16	–	dose-dependent effect on reducing	fold less potent in raising serum Ca than Vida-11 ([1]; 5/6 NX uremic rats, FIG. 11A): at least 64 fold; fold less potent in suppressing PTH than Vida-11 ([1]; 5/6 NX uremic rats, FIG. 11B): about 16 fold; effect on LVW/BW ([4]; 0.16 and 0.64 μg/kg, FIG. 17): significantly reduced
8.85	did not show a significant effect	254	60100	C=C1[C@H](O)CC(=C/C=C2\CCCC3(C)C2CCC3[C@@H](C)OCCC(O)(CC)CC)C[C@H]1O (stereo partly drawn) [Vida-11, (1R,3R)-5-((E)-2-((1S,3αS,7αS)-1-((R)-1-(3-ethyl-3-hydroxypentyloxy)ethyl)-7α-methyldihydro-1H-inden-4(2H, 5H, 6H, 7H, 7αH)-ylidene)ethylidene)-2-methylenecyclohexane-1,3-diol]	no dose-dependent effect	significantly suppress PTH levels in a dose-dependent manner	elevated serum Ca in a dose-dependent manner	no dose-dependent effect	0.01	reduce proteinuria; also recorded: significantly reduced proteinuria	reduced LVW/BW at the two lower doses, but not at 0.16 μg/kg	dose at which compound raises serum Ca [1, 7]: 0.01 µg/kg

SMILES	pEC50 (VDR; [5])	effect on serum phosphorus [1, 6]	maximal absorbance wavelength [2] [nm]	extinction coefficient [2]	effect on BUN [1, 6]	effect on serum PTH [1, 6]	effect on serum calcium [1, 6]	effect on serum creatinine [1, 6]	dose at which compound starts to suppress serum PTH [1, 7] [µg/kg]	proteinuria (urinary protein concentration and total protein per day) [3]	effect on LVW/BW (left ventricle weight to body weight) [4, 8]	further results
C=C1[C@H](O)CC(=C/C=C2\CCCC3(C)C2CCC3[C@@H](C)OC[C@H](C)C(C)(C)O)C[C@H]1O (stereo partly drawn) [Vida-5, (1R,3R)-5-((E)-2-((3αS,7αS)-1-((R)-1-((S)-3-hydroxy-2,3-dimethylbutoxy)ethyl)-7α-methyldihydro-1H-inden-4(2H,5H,6H, 7H, 7αH)-ylidene)ethylidene)-2-methylenecyclohexane-1,3-diol]	8.49	did not have a significant effect	253	48360	significantly reduced BUN at the two higher doses (0.16 and 0.64 μg/kg)	significantly suppress PTH levels in a dose-dependent manner	did not have a significant effect	at the 4 lower doses, had no significant effect on serum creatinine, but the highest dose reduced serum creatinine	0.004	reduce proteinuria; also recorded: significantly reduced proteinuria	significantly reduces; also recorded: dose-dependent effect on reducing	pEC50 (VDR; typical study, FIG. 5B, read-out: EC50 for inducing VDR expression): 8.89; maximal absorbance wavelength (ODmax) ([2]; FIG. 1, typical absorbance profile): 253 nm; cardiomyocyte morphology ([4]; 0.01 μg/kg): improved the morphology of the cardiomyocytes; effect on LVW/BW ([4]; 0.04 μg/kg alone, 3×/week, i.p. for 2 weeks): completely normalized LVW/BW; effect on LVW/BW ([4]; 0.04 μg/kg plus losartan (0.025 mg/ml in drinking water)): completely normalized LVW/BW; cardiomyocyte morphology ([4]; 0.16 μg/kg, 3×/week, i.p. for 2 weeks): nearly restored the morphology of the cardiomyocytes back to the Sham level; cardiomyocyte diameter ([4]; 0.01-0.64 μg/kg, 2 weeks of treatment, FIG. 19): decreases cardiomyocytes diameter; also recorded: significantly reduced; effect on LVW/HW (left ventricle weight to heart weight) [4, 8]: significantly reduces; also recorded: dose-dependent effect on reducing
